The values below come from US8765779B2, “Tricyclic derivatives and their pharmaceutical use and compositions” (Cephalon, Inc., priority 2009, dated 2014).

By Ki is commonly meant a measure of affinity in units of concentration, obtained from inhibition or displacement.

SMILES strings stand for the structures.

T1 sequence (P50406 whole entry): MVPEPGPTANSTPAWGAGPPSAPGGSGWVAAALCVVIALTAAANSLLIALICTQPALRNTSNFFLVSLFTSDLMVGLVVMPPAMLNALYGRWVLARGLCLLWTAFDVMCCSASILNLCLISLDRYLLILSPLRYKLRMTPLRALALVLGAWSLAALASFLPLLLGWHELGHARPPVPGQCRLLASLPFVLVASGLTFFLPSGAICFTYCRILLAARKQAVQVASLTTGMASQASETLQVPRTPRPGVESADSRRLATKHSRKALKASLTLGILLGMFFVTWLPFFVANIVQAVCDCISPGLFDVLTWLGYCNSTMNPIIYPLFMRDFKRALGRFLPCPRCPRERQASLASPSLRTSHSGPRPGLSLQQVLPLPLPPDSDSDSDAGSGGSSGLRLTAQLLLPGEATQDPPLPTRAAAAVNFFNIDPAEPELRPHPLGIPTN

The first assay has as its target T1, human 5-HT6 receptor (Homo sapiens, UniProt P50406).
T1 construct: host or cells: CHO-K1 cells, stably transfected; membranes prepared in house
Description: Human 5-HT6 Receptor Binding Assay ([3H]LSD displacement, scintillation beads). The conditions noted are these: membranes of CHO-K1 cells with recombinant human 5-HT6, 4 nM [3H]LSD; Table 1, class symbols; read-out: h5-HT6 (Ki).
`O=[N+]([O-])c1ccc(S(=O)(=O)c2ccc3c(c2)OC2CNCCC32)cc1` (centres unmarked) [Example 124]: the Ki is greater than 1000 nM. The same measure, in the same setting: to `CC(C)c1ccc(S(=O)(=O)c2ccc3c(c2)OC2CNCCC32)cc1` (centres unmarked) [Example 125] belongs less than 500 nM; to `O=S(=O)(c1cccc(C(F)(F)F)c1)c1ccc2c(c1)OC1CNCCC21` (centres unmarked) [Example 126], less than 500 nM. Same read-out and setting: to `O=S(=O)(c1ccc(F)c(Cl)c1)c1ccc2c(c1)OC1CNCCC21` (centres unmarked) [Example 127] belongs less than 500 nM; to `O=S(=O)(c1ccc(F)c(F)c1)c1ccc2c(c1)OC1CNCCC21` (centres unmarked) [Example 128], less than 500 nM. As to `COc1ccc(S(=O)(=O)c2ccc3c(c2)OC2CNCCC32)cc1F` (centres unmarked) [Example 129], the Ki lay within 500 to 1000 nM. `Cc1ccc(F)cc1S(=O)(=O)c1ccc2c(c1)OC1CNCCC21` (centres unmarked) [Example 130]: the Ki is less than 500 nM.

`O=S(=O)(c1cc(F)cc(F)c1)c1ccc2c(c1)OC1CNCCC21` (centres unmarked) [Example 131]: the Ki was less than 500 nM.

`COc1ccc(F)cc1S(=O)(=O)c1ccc2c(c1)OC1CNCCC21` (centres unmarked) [Example 132]: the Ki is greater than 1000 nM.

With `O=S(=O)(c1cccc(Br)c1)c1ccc2c(c1)OC1CNCCC21` (centres unmarked) [Example 133], the Ki is less than 500 nM. The same measure, in the same setting: to `O=S(=O)(c1ccc(F)cc1)c1ccc2c(c1)OC1CNCCC21` (centres unmarked) [Example 134] belongs less than 500 nM. Turning to `[O-][S+](c1ccc2c(c1)OC1CNCCC21)c1cc(Cl)ccc1Cl` (centres unmarked) [Example 135], the Ki was greater than 1000 nM. Same read-out and setting: to `CC(C)Oc1cccc(S(=O)(=O)c2ccc3c(c2)OC2CNCCC32)c1` (centres unmarked) [Example 136] belongs less than 500 nM. For `Cc1cc(S(=O)(=O)c2ccc3c(c2)OC2CNCCC32)ccc1F` (centres unmarked) [Example 137], the Ki is less than 500 nM. On the same count and under the same terms, to `COC(=O)c1cccc(S(=O)(=O)c2ccc3c(c2)OC2CNCCC32)c1` (centres unmarked) [Example 138] belongs greater than 1000 nM; to `N#Cc1ccc(S(=O)(=O)c2ccc3c(c2)OC2CNCCC32)cc1` (centres unmarked) [Example 139], greater than 1000 nM. Still for that read-out and setting: to `CC(=O)Nc1ccc(S(=O)(=O)c2ccc3c(c2)OC2CNCCC32)cc1` (centres unmarked) [Example 140] belongs less than 500 nM; to `Cc1cccc(S(=O)(=O)c2ccc3c(c2)OC2CNCCC32)c1` (centres unmarked) [Example 141], less than 500 nM.

`[O-][S+](c1ccc2c(c1)OC1CNCCC21)c1cc(F)ccc1F` (centres unmarked) [Example 142]: the Ki was greater than 1000 nM. As to `O=S(=O)(c1ccc2c(c1)OC1CNCCC21)c1cc(F)ccc1F` (centres unmarked) [Example 143], the Ki was less than 500 nM. As for `[O-][S+](c1ccc2c(c1)OC1CNCCC21)c1c(F)c(F)cc(F)c1F` (centres unmarked) [Example 144], the Ki is greater than 1000 nM.

Regarding `O=S(=O)(c1ccc(-c2ccccc2)cc1)c1ccc2c(c1)OC1CNCCC21` (centres unmarked) [Example 145], the Ki is greater than 1000 nM. In the case of `O=S(=O)(c1ccc2c(c1)OC1CNCCC21)c1ccccc1F` (centres unmarked) [Example 146], the Ki is less than 500 nM. Still for that read-out and setting: to `O=S(=O)(c1cc(F)cc(Cl)c1)c1ccc2c(c1)OC1CNCCC21` (centres unmarked) [Example 147] belongs less than 500 nM; to `O=S(=O)(c1ccc2c(c1)OC1CNCCC21)c1ccc(Cl)c(C(F)(F)F)c1` (centres unmarked) [Example 148], less than 500 nM; to `O=S(=O)(c1cccc(OC(F)(F)F)c1)c1ccc2c(c1)OC1CNCCC21` (centres unmarked) [Example 149, 7-{[3-(trifluoromethoxy)phenyl]sulfo-nyl}-1,2,3,4,4a,9a-hexahydro[1]benzofuro[2,3-c]pyridine], less than 500 nM. For `O=S(=O)(c1ccc2c(c1)OC1CNCCC21)c1c(F)c(F)cc(F)c1F` (centres unmarked) [Example 150], the Ki is less than 500 nM.

Regarding `O=S(=O)(c1ccc(C(F)(F)F)cc1)c1ccc2c(c1)OC1CNCCC21` (centres unmarked) [Example 151], the Ki was in the range of 500 to 1000 nM. Still for that read-out and setting: to `O=S(=O)(c1ccc2c(c1)OC1CNCCC21)c1ccccc1-c1ccccc1` (centres unmarked) [Example 152] belongs less than 500 nM; to `O=S(=O)(c1ccc2c(c1)OC1CNCCC21)c1ccccc1-c1ccccc1` (centres unmarked) [Example 153], less than 500 nM.

For the molecule `O=S(=O)(c1ccc2c(c1)OC1CNCCC21)C1CCCCC1` (centres unmarked) [Example 154], the Ki is greater than 1000 nM. Same read-out and setting: to `O=S(=O)(c1cc(Cl)cc(Cl)c1)c1ccc2c(c1)OC1CNCCC21` (centres unmarked) [Example 155] belongs less than 500 nM; to `O=S(=O)(c1ccc2c(c1)OC1CNCCC21)c1cccc(Cl)c1Cl` (centres unmarked) [Example 156], less than 500 nM. Still for that read-out and setting: to `O=S(=O)(c1cc(F)cc(Cl)c1)c1ccc2c(c1)OC1CNCCC21` (centres unmarked) [Example 157] belongs less than 500 nM; to `O=S(=O)(c1cc(F)cc(F)c1)c1ccc2c(c1)OC1CNCCC21` (centres unmarked) [Example 158], less than 500 nM; to `CC(C)Oc1cccc(S(=O)(=O)c2ccc3c(c2)OC2CNCCC32)c1` (centres unmarked) [Example 159], less than 500 nM.

As to `O=S(=O)(c1cccc(OC(F)(F)F)c1)c1ccc2c(c1)OC1CNCCC21` (centres unmarked) [Example 160, 7-{[3-(trifluoromethoxy)phenyl]sulfo-nyl}-1,2,3,4,4a,9a-hexahydro[1]benzofuro[2,3-c]pyridine], the Ki is less than 500 nM. Same read-out and setting: to `O=S(=O)(c1cccc(C(F)(F)F)c1)c1ccc2c(c1)OC1CNCCC21` (centres unmarked) [Example 161, 7-{[3-(trifluoromethyl)phenyl]sulfonyl}-1,2,3,4,4a,9a-hexahydro[1]benzofuro[2,3-c]pyridine] belongs less than 500 nM. In the case of `O=S(=O)(c1ccc2c(c1)OC1CNCCC21)c1cccc(Cl)c1Cl` (centres unmarked) [Example 162], the Ki is less than 500 nM. The same measure, in the same setting: to `O=S(=O)(c1cc(F)cc(Cl)c1)c1ccc2c(c1)OC1CNCCC21` (centres unmarked) [Example 163] belongs less than 500 nM. The same measure, in the same setting: to `O=S(=O)(c1cc(F)cc(F)c1)c1ccc2c(c1)OC1CNCCC21` (centres unmarked) [Example 164] belongs less than 500 nM; to `CC(C)Oc1cccc(S(=O)(=O)c2ccc3c(c2)OC2CNCCC32)c1` (centres unmarked) [Example 165], less than 500 nM.

As to `O=S(=O)(c1cccc(OC(F)(F)F)c1)c1ccc2c(c1)OC1CNCCC21` (centres unmarked) [Example 166, 7-{[3-(trifluoromethoxy)phenyl]sulfo-nyl}-1,2,3,4,4a,9a-hexahydro[1]benzofuro[2,3-c]pyridine], the Ki was less than 500 nM.

`O=S(=O)(c1cccc(C(F)(F)F)c1)c1ccc2c(c1)OC1CNCCC21` (centres unmarked) [Example 167]: the Ki is less than 500 nM. On the same count and under the same terms, to `O=S(=O)(c1cccc(F)c1)c1ccc2c(c1)C1CCNCC1O2` (centres unmarked) [Example 168] belongs 500 to 1000 nM; to `O=S(=O)(c1ccc2c(c1)C1CCNCC1O2)c1ccccc1Cl` (centres unmarked) [Example 169], 500 to 1000 nM; to `O=S(=O)(c1ccc2c(c1)C1CCNCC1O2)c1cccc2ccccc12` (centres unmarked) [Example 170], less than 500 nM. With `COc1ccc(S(=O)(=O)c2ccc3c(c2)C2CCNCC2O3)cc1OC` (centres unmarked) [Example 171], the Ki is greater than 1000 nM.

Turning to `O=S(=O)(c1ccc(Cl)c(Cl)c1)c1ccc2c(c1)C1CCNCC1O2` (centres unmarked) [Example 172], the Ki was less than 500 nM. In the case of `O=S(=O)(c1ccc(Oc2ccccc2)cc1)c1ccc2c(c1)C1CCNCC1O2` (centres unmarked) [Example 173], the Ki is greater than 1000 nM. On to `Cc1ccc(S(=O)(=O)c2ccc3c(c2)C2CCNCC2O3)cc1` (centres unmarked) [Example 174], for which the Ki is greater than 1000 nM. Same read-out and setting: to `O=S(=O)(c1ccc2c(c1)C1CCNCC1O2)c1ccc2ccccc2c1` (centres unmarked) [Example 175] belongs less than 500 nM. Turning to `O=S(=O)(c1ccc2c(c1)C1CCNCC1O2)c1cccc(Cl)c1Cl` (centres unmarked) [Example 176], the Ki is less than 500 nM.

As for `O=[N+]([O-])c1ccc(S(=O)(=O)c2ccc3c(c2)C2CCNCC2O3)cc1` (centres unmarked) [Example 177], the Ki is greater than 1000 nM. Still for that read-out and setting: to `COc1cccc(S(=O)(=O)c2ccc3c(c2)C2CCNCC2O3)c1` (centres unmarked) [Example 178] belongs less than 500 nM. In the case of `CC(C)c1ccc(S(=O)(=O)c2ccc3c(c2)C2CCNCC2O3)cc1` (centres unmarked) [Example 179], the Ki was less than 500 nM. On the same count and under the same terms, to `O=S(=O)(c1ccc2c(c1)OCCO2)c1ccc2c(c1)C1CCNCC1O2` (centres unmarked) [Example 180] belongs greater than 1000 nM; to `O=S(=O)(c1ccccc1)c1ccc2c(c1)C1CCNCC1O2` (centres unmarked) [Example 181, 6-(phenylsulfonyl)-1,2,3,4,4a,9a-hexahydro[1]benzofuro[2,3-c]pyridine], greater than 1000 nM; to `COc1cccc(S(=O)(=O)c2cccc3c2OC2CNCCC32)c1` (centres unmarked) [Example 182], less than 500 nM. On the same count and under the same terms, to `O=S(=O)(c1ccccc1Cl)c1cccc2c1OC1CNCCC21` (centres unmarked) [Example 183] belongs less than 500 nM.

Take `O=S(=O)(c1cccc2c1OC1CNCCC21)c1cccc2ccccc12` (centres unmarked) [Example 184]: the Ki was less than 500 nM.

Consider `O=S(=O)(c1ccc2c(c1)OCCO2)c1cccc2c1OC1CNCCC21` (centres unmarked) [Example 185], for which the Ki is less than 500 nM.

For the molecule `O=S(=O)(c1ccc(Cl)c(Cl)c1)c1cccc2c1OC1CNCCC21` (centres unmarked) [Example 186], the Ki was less than 500 nM.

On to `COc1ccc(S(=O)(=O)c2cccc3c2OC2CNCCC32)cc1` (centres unmarked) [Example 187], for which the Ki was 500 to 1000 nM. Still for that read-out and setting: to `O=S(=O)(c1ccc(Cl)cc1)c1cccc2c1OC1CNCCC21` (centres unmarked) [Example 188] belongs less than 500 nM; to `O=S(=O)(c1ccc2ccccc2c1)c1cccc2c1OC1CNCCC21` (centres unmarked) [Example 189], less than 500 nM; to `O=[N+]([O-])c1ccc(S(=O)(=O)c2cccc3c2OC2CNCCC32)cc1` (centres unmarked) [Example 190], greater than 1000 nM.

Turning to `O=S(=O)(c1ccccc1-c1ccccc1)c1cccc2c1OC1CNCCC21` (centres unmarked) [Example 191], the Ki is less than 500 nM.

For the molecule `O=S(=O)(c1cccc(C(F)(F)F)c1)c1ccc2c3c(oc2c1)CNCC3` [Example 192], the Ki is less than 500 nM. Consider `O=S(=O)(c1ccc(F)c(Cl)c1)c1ccc2c3c(oc2c1)CNCC3` [Example 193], for which the Ki is less than 500 nM.

As for `COc1ccc(S(=O)(=O)c2ccc3c4c(oc3c2)CNCC4)cc1F` [Example 194], the Ki was less than 500 nM.

As for `CC(C)c1ccc(S(=O)(=O)c2ccc3c4c(oc3c2)CNCC4)cc1` [Example 195], the Ki was less than 500 nM. On the same count and under the same terms, to `O=S(=O)(c1ccc2c3c(oc2c1)CNCC3)c1cccc(Cl)c1Cl` [Example 196, 7-[(2,3-dichlorophenyl)sulfonyl]-1,2,3,4-tetrahydro[1]benzofuro[2,3-c]pyridine] belongs less than 500 nM.

Still in this assay, the particulars now being: membranes of CHO-K1 cells with recombinant human 5-HT6, 4 nM [3H]LSD; specific data; read-out: h5-HT6 (Ki).
For the molecule `O=S(=O)(c1cccc(C(F)(F)F)c1)c1ccc2c(c1)OC1CNCCC21` (centres unmarked) [Example 161, 7-{[3-(trifluoromethyl)phenyl]sulfonyl}-1,2,3,4,4a,9a-hexahydro[1]benzofuro[2,3-c]pyridine], the Ki was found to be 44 nM.
